According to the supplement of paper PMC11061612:

Tests used:
Assay in all cases: Bliss excess, mean over the matrix (fraction); higher = more synergy
[1] = system: KLE (Endometrial Carcinoma)
Summary of the method: (§1)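 Bliss excess equals the observed combination effect minus the expected value EA + EB − EA·EB, where EA and EB are the effects of each agent alone. Combination Emax is the second-highest inhibition within the matrix. Inhibition was scaled from CellTiter-Glo 2.0 luminescence, with 0 set by vehicle wells and 1 by blank wells, after 72 hours of two-drug dosing of cells plated in 1536-well plates.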

[2] = system: KYSE-50 (Esophageal Squamous Cell Carcinoma)
Summary of the method: as §1

NB7 (Neuroblastoma) = system: NB7 (Neuroblastoma)
Summary of the method: as §1

[3] = system: KINGS-1 (Low Grade Glioma)
Summary of the method: as §1

[4] = system: LC4-1 (B-Lymphoblastic Leukemia)
Summary of the method: as §1

EW-13 (Ewing's Sarcoma) = system: EW-13 (Ewing's Sarcoma)
Summary of the method: as §1

[5] = system: NCI-N87 (Gastric Carcinoma)
Summary of the method: as §1

[6] = system: SCC-9 (Oral Cavity Carcinoma)
Summary of the method: as §1

[7] = system: NCI-H1573 (Lung Adenocarcinoma)
Summary of the method: as §1

[8] = system: SNU-C1 (Colorectal Carcinoma)
Summary of the method: as §1

[9] = system: NCI-H2405 (Lung Adenocarcinoma)
Summary of the method: as §1

A704 (Kidney Carcinoma) = system: A704 (Kidney Carcinoma)
Summary of the method: as §1

[10] = system: JHH-7 (Hepatocellular Carcinoma)
Summary of the method: as §1

[11] = system: SCC-3 (B-Cell Non-Hodgkin's Lymphoma)
Summary of the method: as §1

EW-18 (Ewing's Sarcoma) = system: EW-18 (Ewing's Sarcoma)
Summary of the method: as §1

[12] = system: OCUB-M (Breast Carcinoma)
Summary of the method: as §1

[13] = system: NCI-H322M (Lung Adenocarcinoma)
Summary of the method: as §1

[14] = system: NCI-H513 (Other Solid Carcinomas)
Summary of the method: as §1

[15] = system: OVISE (Ovarian Carcinoma)
Summary of the method: as §1

Row | Structure (SMILES) | Bliss excess [1] | Bliss excess [2] | Bliss excess (NB7 (Neuroblastoma)) | Bliss excess [3] | Bliss excess [4] | Bliss excess (EW-13 (Ewing's Sarcoma)) | Bliss excess [5] | Bliss excess [6] | Bliss excess [7] | Bliss excess [8] | Bliss excess [9] | Bliss excess (A704 (Kidney Carcinoma)) | Bliss excess [10] | Bliss excess [11] | Bliss excess (EW-18 (Ewing's Sarcoma)) | Bliss excess [12] | Bliss excess [13] | Bliss excess [14] | Bliss excess [15]
1 | C[C@@H]1COCCN1c1cc(C2([S@](C)(=N)=O)CC2)nc(-c2ccnc3[nH]ccc23)n1 [AZD6738] + O=C(c1cc(Cc2n[nH]c(=O)c3ccccc23)ccc1F)N1CCN(C(=O)C2CC2)CC1 [Olaparib] (first compound max 10 µM, 7x7, partner max 10 µM) | -0.0307 | -0.0202 | 0.0202 | 0.0032 | -0.009 | -0.0574 | 0.0043 | 0.0422 | 0.0201 | -0.0345 | 0.0132 | -0.0282 | 0.0012 | 0.0103 | 0.0292 | 0.0347 | -0.0491 | 0.0157 | 0.0393
2 | Cc1cc2ncnn2cc1Nc1ncc2c(n1)n(C1CCOCC1)c(=O)n2C [AZD7648] + C=CCn1c(=O)c2cnc(Nc3ccc(N4CCN(C)CC4)cc3)nc2n1-c1cccc(C(C)(C)O)n1 [AZD1775] (first compound max 10 µM, partner max 1 µM) | 0.0159 | 0.0011 | -0.011 | -0.0041 | -0.001 | 0.0225 | -0.0342 | 0.0332 | -0.0215 | -0.0209 | -0.0064 | -0.0409 | -0.0337 | -0.0277 | -0.0322 | 0.0389 | -0.0215 | 0.0054 | -0.0043
3 | Cc1cc2ncnn2cc1Nc1ncc2c(n1)n(C1CCOCC1)c(=O)n2C [AZD7648] + CCN(CCO)CCCOc1ccc2c(Nc3cc(CC(=O)Nc4cccc(F)c4)[nH]n3)ncnc2c1 [AZD2811] (first compound max 10 µM, 7x7, partner max 1 µM) | -0.0193 | 0.0784 | 0.0415 | 0.0339 | -0.114 | 0.0259 | 0.0081 | 0.0414 | 0.0382 | -0.0184 | -0.015 | -0.0368 | -0.0244 | 0.0548 | -0.0154 | -0.0108 | -0.0182 | -0.021 | -0.0105
4 | Cc1cc2ncnn2cc1Nc1ncc2c(n1)n(C1CCOCC1)c(=O)n2C [AZD7648] + CN(C)CCCOc1ccc(-c2ccc3ncc4c(c3c2)n(C2CCOCC2)c(=O)n4C)cn1 [AZD0156] (first compound max 10 µM, 7x7, partner max 1 µM) | 0.0175 | 0.0078 | 0.0303 | 0.0089 | 0.0127 | -0.0385 | 0.0452 | -0.0144 | -0.0085 | -0.0423 | -0.0074 | -0.0152 | -0.0152 | 0.0458 | -0.0268 | -0.0055 | 0.0083 | -0.0145 | 0.0265
5 | Cc1cc2ncnn2cc1Nc1ncc2c(n1)n(C1CCOCC1)c(=O)n2C [AZD7648] + C[C@@H]1COCCN1C2=NC(=NC(=C2)C3(CC3)[S@](=N)(=O)C)C4=C5C=CNC5=NC=C4 [AZD6738] (first compound max 10 µM, 7x7, partner max 10 µM) | -0.0639 | -0.0089 | 0.0143 | 0.0412 | 0.0469 | 0.0039 | 0.024 | 0.0507 | 0.0363 | -0.0708 | 0.0068 | 0.0177 | 0.0247 | -0.0083 | -0.0133 | 0.0509 | -0.0048 | -0.0383 | 0.0508
6 | Cc1cc2ncnn2cc1Nc1ncc2c(n1)n(C1CCOCC1)c(=O)n2C [AZD7648] + O=C(c1cc(Cc2n[nH]c(=O)c3ccccc23)ccc1F)N1CCN(C(=O)C2CC2)CC1 [Olaparib] (first compound max 10 µM, 7x7, partner max 10 µM) | -0.013 | -0.0246 | -0.0291 | -0.0561 | -0.0517 | -0.0427 | -0.0262 | -0.0438 | -0.0205 | -0.0619 | -0.0277 | -0.0821 | -0.0356 | -0.0757 | -0.0427 | -0.0467 | -0.0342 | -0.0002 | -0.0526
7 | COc1cccc2c1C(=O)c1c(O)c3c(c(O)c1C2=O)C[C@@](O)(C(=O)CO)C[C@@H]3O[C@H]1C[C@H](N)[C@H](O)[C@H](C)O1 [Doxorubicin] + Cc1cc2ncnn2cc1Nc1ncc2c(n1)n(C1CCOCC1)c(=O)n2C [AZD7648] (first compound max 1 µM, 7x7, partner max 10 µM) | -0.002 | 0.0331 | 0.0742 | 0.0173 | 0.111 | 0.0376 | -0.0298 | -0.0027 | -0.0038 | -0.0037 | -0.0042 | -0.023 | 0.0271 | 0.158 | 0.0402 | 0.0696 | 0.0751 | 0.0341 | 0.0341
8 | COc1cccc(OCCCN)c1-c1cc(Nc2cnc(C#N)cn2)n[nH]1 [Prexasertib] + C=CCn1c(=O)c2cnc(Nc3ccc(N4CCN(C)CC4)cc3)nc2n1-c1cccc(C(C)(C)O)n1 [AZD1775] (first compound max 1 µM, partner max 1 µM) | 0.112 | 0.0242 | 0.0708 | 0.072 | 0.0128 | 0.0788 | -0.0324 | 0.0249 | 0.108 | 0.0175 | 0.032 | 0.018 | 0.107 | 0.051 | -0.0615 | 0.232 | 0.0366 | 0.0545 | 0.0144
